{"source": "patent US20150290192A1", "about": "“INHIBITORS OF BRUTON'S TYROSINE KINASE” (HOFFMANN-LA ROCHE INC., priority 2012, published 2015)", "system": "OVA sensitized and challenged mice, airway eosinophilia", "assay": "Ovalbumin-induced allergic airway disease: allergen-induced airway eosinophilia", "type": "in vivo, mouse", "settings": "for % reduction in airway eosinophilia: Inhaled, mOVA40", "procedure": "The mouse model of ovalbumin-induced allergic airway disease was employed to assess the effects of Compound 1 on allergen-induced bronchoconstriction and allergen-induced airway inflammation. Briefly, mice (male; BALB/c; 7-9 weeks of age) were immunized i.p. with […] of ovalbumin (OVA) in 0.2 ml of Alum (2% Al(OH)3 in water, Serva, Heidelberg, Germany) on days 0 and 14. Control animals received Alum only. On days 21-23, animals were exposed for 20 min to a nebulized (Proneb Ultra II, PARI Respiratory Equipment, Midlothian, Va.,) aerosol of 1% OVA (10 mg/ml) in phosphate-buffered saline (PBS), to establish the inflammatory process within the lung; or PBS alone as a control. For studies where intranasal dosing was used, mice were anesthetized with isoflurane and intranasally (i.n.) administered vehicle (20% propylene glycol) or Compound 1 (0.3 mg/kg) one hour prior to each aerosolized OVA challenge.\nFor studies using inhalation delivery, Compound 1 was micronized by a jet mill (MC One Jet Mill, Jetpharma USA Inc., South Plainfield, N.J.) and the dry powder aerosol was generated using a Wright dust feed dry powder aerosol generator. The micronized drug powder was packed into a cylindrical reservoir using a hydraulic press at approximately 1000 psi to produce compacted cakes of powder used as input by the Wright dust feed. The dust feed creates and aerosol that is passed through a sonic nozzle for de-agglomeration and into a cyclone to remove non-respirable particles and agglomerates. The cyclone output passed into the TSE nose-only rodent exposure system. Dose groups of mice were exposed to the aerosol test atmosphere for 5, 15, or 45 minutes. […] The particle size distribution for each exposure was evaluated by collecting aerosol samples with an eight stage cascade impactor. […] Impactor data were mathematically evaluated to determine the Mass Median Aerodynamic Diameter (MMAD) and Geometric Standard Deviation (GSD) of 6-tert-Butyl-2-[2-hydroxymethyl-3-(5-{5-[(2-methoxy-ethylamino)-methyl]-pyridin-2-ylamino}-1-methyl-6-oxo-1,6-dihydro-pyridin-3-yl)-phenyl]-3,4-dihydro-2H-isoquinolin-1-one using graphical analysis of an assumed lognormal distribution. The estimated deposited dose of Compound 1 was calculated using a minute volume for the mouse of 0.026 liters per minute and the pulmonary deposition fraction was determined from the MMAD. […]\nTo study the effects of Compound 1 on airway inflammation, after the three 1% OVA challenges, a final OVA challenge was given as an aerosol solution of 5% OVA in PBS (50 mg/ml) or PBS alone for 20 min. […] The lungs were lavaged and airway inflammation was evaluated as previously described by performing total and differential cell counts [Harris et al., 2012, Mucosal Immunology]. […]", "note": "Marks after values point to notes of the source that are not given here.", "data": [{"smiles": "CN1CCC(c2ccc(Nc3cc(-c4ccnc(-n5ncc6cc(C(C)(C)C)cc(F)c6c5=O)c4CO)nn(C)c3=O)nc2)CC1", "note": "[Compound 1, 6-tert-Butyl-8-fluoro-2-{3-hydroxymethyl-4-[1-methyl-5-(1′-methyl-1′,2′,3′,4′,5′,6′-hexahydro-[3,4′]bipyridinyl-6-ylamino)-6-oxo-1,6-dihydro-pyridazin-3-yl]-pyridin-2-yl}-2H-phthalazin-1-one]", "values": [{"measurement": "% reduction in airway eosinophilia", "setting": "delivered dose 0.09 mg/kg, deposited dose .003 mg/kg", "value": "82* %"}, {"measurement": "% reduction in airway eosinophilia", "setting": "delivered dose 0.27 mg/kg, deposited dose .010 mg/kg", "value": "83* %"}, {"measurement": "% reduction in airway eosinophilia", "setting": "delivered dose 0.81 mg/kg, deposited dose .030 mg/kg", "value": "84* %"}, {"measurement": "OVA-induced increase in the numbers of eosinophils recovered in the lavage fluid", "setting": "dry powder formulation by inhalation", "value": "effectively inhibited"}]}]}
